This is an account of results in PubChem BioAssay (NCI).

Broadly, the TGI is the concentration at which net growth stops. A high value points to less potent growth arrest. A word on the GI50: it is the concentration that inhibits growth by half.

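Cultured in 96-well plates, cells were exposed to test compound for 48 hours across five concentrations. At the GI50, growth is halved. TGI marks complete inhibition of growth.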 Some results are limits rather than exact numbers.

Among the test systems are COLO 205 colon; HL-60(TB) leukemia; HOP-62 NSCLC; MOLT-4 leukemia; NCI-H460 lung; OVCAR-8 ovarian; SK-MEL-2 melanoma; TK-10 renal; UACC-62 melanoma; UO-31 renal.
Experiment in all cases: DTP human tumour cell line panel, 48 h

Take `COC(=O)/C=C(\S/C=C(/c1ccccc1)N1CCn2c(C(=O)c3ccccc3)c(C(=O)OC)c(C(=O)OC)c21)C(=O)OC`: the TGI was 3.46 µM in the test on COLO 205 colon; 2.6 µM in the test on HL-60(TB) leukemia; 5.02 µM in the test with HOP-62 NSCLC; 5.64 µM in the test on MOLT-4 leukemia; > 10 µM in the test with NCI-H460 lung; 3.21 µM in the test with OVCAR-8 ovarian. Also, the figures for the TGI in the test on SK-MEL-2 melanoma, in the test on TK-10 renal and in the test on UACC-62 melanoma were > 10 µM, 5.61 µM and > 10 µM, respectively.
With `COC(=O)[C@@H]1CC(C(CN)c2cn(C(=O)OC(C)(C)C)c3ccccc23)C(=O)N1C(=O)OC(C)(C)C` (stereo not given in full), the TGI was 32.8 µM in the test on COLO 205 colon; 59.2 µM in the test on HL-60(TB) leukemia; > 100 µM in the test with HOP-62 NSCLC; 37.6 µM with MOLT-4 leukemia; 56 µM with NCI-H460 lung; 55.8 µM in the test with OVCAR-8 ovarian. Besides, the TGI in the test with SK-MEL-2 melanoma was 55.3 µM; with TK-10 renal, > 100 µM; in the test with UACC-62 melanoma, 28.8 µM; with UO-31 renal, > 100 µM.
On to `CCCC1(CCC)c2cc(/C=N\O)ccc2-c2ccc(-c3ccc(C(C)(C)C)cc3)cc21`, for which the TGI in the test on COLO 205 colon was > 100 µM; in the test on HL-60(TB) leukemia, 51.7 µM; in the test on HOP-62 NSCLC, > 100 µM; with MOLT-4 leukemia, 60.9 µM; in the test with NCI-H460 lung, > 100 µM; in the test with OVCAR-8 ovarian, > 100 µM. The TGI was 99.3 µM in the test on SK-MEL-2 melanoma, > 100 µM in the test with TK-10 renal and > 100 µM in the test with UO-31 renal.
`CCn1c(=O)c2nc(SC)sc2n(-c2ccccc2)c1=O`: the TGI in the test with COLO 205 colon, in the test with HL-60(TB) leukemia, in the test on HOP-62 NSCLC, with MOLT-4 leukemia, in the test on NCI-H460 lung and in the test with OVCAR-8 ovarian was > 100 µM each time. Further, the TGI in the test with SK-MEL-2 melanoma was > 100 µM; in the test on TK-10 renal it was > 100 µM; in the test with UO-31 renal, 56.4 µM.
For the compound `ClCc1cccc(CSc2ncnc3c2ncn3Cc2cccc(CCl)c2)c1`, the GI50 in the test with COLO 205 colon is 1.88 µM; in the test on HL-60(TB) leukemia it was 2.26 µM; in the test with HOP-62 NSCLC, 1.8 µM; in the test with MOLT-4 leukemia, 3.65 µM; in the test on NCI-H460 lung, 2.04 µM; with OVCAR-8 ovarian, 2.11 µM. For the same compound, the GI50 is 2.58 µM in the test on SK-MEL-2 melanoma, 1.93 µM in the test on TK-10 renal, 1.76 µM in the test on UACC-62 melanoma and 1.74 µM in the test with UO-31 renal. The TGI in the test with COLO 205 colon is 3.43 µM; in the test on HL-60(TB) leukemia, 5.03 µM; in the test on HOP-62 NSCLC, 3.33 µM; in the test with MOLT-4 leukemia it was 17.2 µM; in the test on NCI-H460 lung it was 4.76 µM; with OVCAR-8 ovarian, 6.24 µM. The total growth inhibition concentration (TGI) with SK-MEL-2 melanoma is 6.81 µM; in the test on TK-10 renal, 3.61 µM; with UACC-62 melanoma, 3.46 µM; with UO-31 renal it was 3.93 µM.
With `Cc1ccc(S(=O)(=O)N/N=C2/CC3CCC4CC2CC34)cc1` (stereo not given), the TGI in the test with COLO 205 colon, in the test with HL-60(TB) leukemia, in the test with HOP-62 NSCLC, with MOLT-4 leukemia, with NCI-H460 lung and with OVCAR-8 ovarian was > 100 µM in each case. For the same compound, the TGI in the test with SK-MEL-2 melanoma, with TK-10 renal, in the test on UACC-62 melanoma and in the test on UO-31 renal was > 100 µM throughout.
With `CSCCCNC(=O)c1csc(-c2csc(CCNC(=O)CNC(=O)CNC(=O)OC(C)(C)C)n2)n1`, the TGI in the test with COLO 205 colon, in the test with HL-60(TB) leukemia, with HOP-62 NSCLC, with MOLT-4 leukemia, in the test on NCI-H460 lung and with OVCAR-8 ovarian was > 100 µM in each case. In addition, the TGI with SK-MEL-2 melanoma, in the test with TK-10 renal, with UACC-62 melanoma and with UO-31 renal was > 100 µM throughout.
In the case of `COc1cc(NC=C2C(=O)OC(C)(C)OC2=O)c(OC)c(C)c1OC`, the TGI with COLO 205 colon, with HL-60(TB) leukemia, in the test on HOP-62 NSCLC, with MOLT-4 leukemia, with NCI-H460 lung and with OVCAR-8 ovarian was > 100 µM each time. Also, the TGI in the test on SK-MEL-2 melanoma, with TK-10 renal, in the test with UACC-62 melanoma and in the test with UO-31 renal was > 100 µM throughout.
As to `O=C1CCCCC/C1=C\c1ccccc1`, the TGI in the test on COLO 205 colon, in the test with HL-60(TB) leukemia, with HOP-62 NSCLC, with MOLT-4 leukemia, in the test on NCI-H460 lung and in the test on SK-MEL-2 melanoma was > 100 µM throughout. The TGI in the test with TK-10 renal, in the test with UACC-62 melanoma and with UO-31 renal was > 100 µM in each case.
As to `CC(C)/C(=N\[N+](C)(C)C)c1ccccc1`, the TGI in the test with COLO 205 colon, in the test with HL-60(TB) leukemia, with HOP-62 NSCLC, in the test with MOLT-4 leukemia, in the test with NCI-H460 lung and in the test on OVCAR-8 ovarian was > 100 µM in each case. The TGI with SK-MEL-2 melanoma, with TK-10 renal, with UACC-62 melanoma and with UO-31 renal was > 100 µM throughout.
For the compound `CC(C)(C)OC(=O)CN1CCN(CC(=O)N2CCN(C(=O)OCc3ccccc3)CC2)CCN(CC(=O)OC(C)(C)C)CCN(CC(=O)N2CCN(C(=O)OCc3ccccc3)CC2)CC1`, the TGI amounted to 2.64 µM in the test with COLO 205 colon; 0.525 µM with HL-60(TB) leukemia; 16.4 µM in the test with HOP-62 NSCLC; 5.05 µM in the test with MOLT-4 leukemia; 6.98 µM in the test with NCI-H460 lung; 16.8 µM in the test on OVCAR-8 ovarian. Moreover, the concentration for total growth inhibition (TGI) came out at 5.54 µM in the test with SK-MEL-2 melanoma, 15.9 µM with TK-10 renal, 7.59 µM in the test on UACC-62 melanoma and 25.5 µM in the test with UO-31 renal.
With `CC(=O)C(=[N+]=[N-])C(=O)N(C)CCC#N`, the TGI in the test with HL-60(TB) leukemia, with HOP-62 NSCLC, with MOLT-4 leukemia, with NCI-H460 lung, in the test with OVCAR-8 ovarian and with SK-MEL-2 melanoma was > 10 µM in each case. Moreover, the TGI in the test with TK-10 renal, with UACC-62 melanoma and with UO-31 renal was > 10 µM in each case.
